Assay results as given in ChEMBL document CHEMBL2016562, “Optimization of Pharmacokinetics through Manipulation of Physicochemical Properties in a Series of HCV Inhibitors” (ACS Med Chem Lett, 2011).

Tests used:
[1] = Half life in Sprague-Dawley rat liver microsomes; assay type: ADME, Microsome
Hepatitis C virus = assay: Antiviral activity against HCV subtype 1b in replicon cells after 3 days by luciferase reporter gene assay; assay type: functional, Hepacivirus hominis; details: genotype 1b, 72 h
[2] = Oral bioavailability in Sprague-Dawley rat after 30 mins; assay type: ADME, organism-based; details: in vivo
[3] = Mean residence time in Sprague-Dawley rat; assay type: ADME, organism-based; details: in vivo
[4] = Clearance in Sprague-Dawley rat after 30 mins; assay type: ADME, organism-based; details: in vivo
[5] = Volume of distribution at steady state in Sprague-Dawley rat after 30 mins; assay type: ADME, organism-based; details: in vivo, read-out: Vdss
[6] = Apparent permeability by PAMPA assay; assay type: ADME

Compound	half-life [1] [h]	EC50 (Hepatitis C virus) [nM]	bioavailability [2] [%]	MRT [3] [h]	clearance [4] [mL/min/kg]	Vd [5] [L/kg]	Papp [6] [×10⁻⁶ cm/s]
CC1(Oc2nc(NCc3ccc(-n4cncn4)cc3)nc3ccc(-c4ccc(OC5CC5)nc4)nc23)CC1	> 6.58	2	100	1.9			
NS(=O)(=O)c1cc(Cl)cc(CNc2nc(NC3(C(F)(F)F)CC3)c3nc(-c4ccc(F)cc4)ccc3n2)c1	> 6.58	28		11	6.67	4.3	
N#CC1(Nc2nc(NCc3ccc(S(N)(=O)=O)cc3)nc3ccc(-c4ccc(F)nc4)nc23)CC1	> 6.58	5		0.9	15	0.9	
NS(=O)(=O)c1ccc(CNc2nc(NCC(F)(F)F)c3nc(-c4ccc(F)nc4)ccc3n2)cc1	4.63	10		4.9	3.33	1	
COc1ccc(-c2ccc3nc(NCc4ccc(S(N)(=O)=O)cc4)nc(NC4(C#N)CC4)c3n2)cn1	1.62	1	2	0.4			
NS(=O)(=O)c1ccc(CNc2nc(NCC(F)(F)F)c3nc(-c4ccc(NC(=O)C5CC5)cc4)ccc3n2)cc1	1.17	3	1				0.004
NS(=O)(=O)c1cc(CNc2nc(NCC(F)(F)F)c3nc(-c4ccc(NC(=O)C5(C(F)(F)F)CC5)cc4)ccc3n2)cc(C(F)(F)F)c1	> 6.58	6	39				0.09

Further lines, results first:

half-life [1] [h]	EC50 (Hepatitis C virus) [nM]	bioavailability [2] [%]	MRT [3] [h]	clearance [4] [mL/min/kg]	Vd [5] [L/kg]	Papp [6] [×10⁻⁶ cm/s]	Compound
5.85	2	47	2.6				COc1ccc(-c2ccc3nc(N[C@H](C)c4ccc(-n5cncn5)cc4)nc(NCC(F)(F)F)c3n2)cc1S(C)(=O)=O
> 6.58	2	4					NS(=O)(=O)c1ccc(CNc2nc(NCC(F)(F)F)c3nc(-c4ccc(-n5cncn5)cc4)ccc3n2)cc1
> 6.58	1	1	0.8				COc1ccc(-c2ccc3nc(NCc4ccc(S(N)(=O)=O)cc4)nc(NCC(F)(F)F)c3n2)cc1S(C)(=O)=O
> 6.58	3	59	5.3				FC(F)(F)CNc1nc(NCc2ccc(-n3cncn3)cc2)nc2ccc(-c3ccc(OC4CC4)nc3)nc12
> 6.58	16	100	6.9	5	2.3		NS(=O)(=O)c1ccc(CNc2nc(NCC(F)(F)F)c3nc(-c4ccc(F)cc4)ccc3n2)cc1
3.92	4	88	3.5				C[C@@H](Nc1nc(NC2(C(F)(F)F)CC2)c2nc(-c3cccc(S(C)(=O)=O)c3)ccc2n1)c1ccc(-n2cncn2)cc1
